From paper PMC10914731, “Homo-BacPROTAC-induced degradation of ClpC1 as a strategy against drug-resistant mycobacteria” (Nature Communications, 2024)
≈ marks a conversion by molar mass, not a printed value. Where “and” joins values, the source holds several entries; their conditions need not be identical. Equal entries are not always repeated. Where two headings read alike, the source gives them in different places. *1 amine or outer side, *2 acyl side, *3 side chain or, on linkers, in order; H or OH if unused. Where a SMILES comes first, the peptide text is derived from it. [ ]: non-standard residue; d: D form. X5 = C=CCn1cc(C[C@@H](C(=O)[*:2])N(C)[*:1])c2ccccc21; X7 = C=CCn1cc(C[C@H](N[*:1])C(=O)[*:2])c2ccccc21; NMeLeu(5-OH,4R) = CN[C@@H](C[C@@H](C)CO)C(=O)O; Phe(βR-OMe) = CO[C@H](c1ccccc1)[C@H](N)C(=O)O; NMeL = CN[C@@H](CC(C)C)C(=O)O

Columns and labels:
[1] = tested on: Mycobacterium intracellulare; assay: microbe, parasite or virus in culture; type: cell-based
Mycobacterium abscessus = assay: microbe, parasite or virus in culture; type: cell-based
Mycobacterium fortuitum = assay: microbe, parasite or virus in culture; type: cell-based
Mycobacterium avium = assay: microbe, parasite or virus in culture; type: cell-based
[2] = type: in vitro ADME, Human; conditions: for Hepatocyte Human: clearance in hepatocytes
Description: (§1) Cryopreserved hepatocytes are incubated in an appropriate buffer system containing 50% species serum. Following an acclimation period (15–30 min) in an incubator (37 °C, 5−10% CO2, 85–95% humidity) the test compound is added to the hepatocyte suspension (pH 7.4, typical cell density of about 1 million cells/mL; final concentration of test compound is 1 µM, final DMSO concentration <0.05% v/v). The cells are incubated for up to 6 h and samples are taken at 6 different time points. Samples are then quenched with acetonitrile and pelleted by centrifugation. The remaining amount of parent compound in the supernatants is then analysed by HPLC-MS/MS. Clearance is calculated from compound half-lives using the well-stirred liver model and is converted to clearance stated as % of the liver blood flow (% Qh).

[3] = Hepatocyte stability, mice; type: in vitro ADME; conditions: for Hepatocyte Mice: clearance in hepatocytes
Description: as §1

[4] = type: in vitro ADME, Rat; conditions: for Hepatocyte Rat: clearance in hepatocytes
Description: as §1

[5] = Microsomal stability, human; type: in vitro ADME; conditions: for Microsomal Stability Human: clearance in microsomes
Description: (§2) The kinetics of compound degradation in liver microsomes is assessed in an assay with 1 µmol/l of compound and 0.5 mg/ml liver microsomes in a medium of 100 mM Tris-HCl pH 7.5, 6.5 mM MgCl2 and 1 mM NADPH at 37 °C. The reaction is stopped at multiple time points by adding acetonitrile. After centrifugation, the compound concentration is measured in the supernatants by high-performance liquid chromatography (HPLC) tandem mass spectrometry (MS/MS). The results are fitted to a first-order decay and the half-lives are converted to clearance (stated as % of the liver blood flow (%Qh)) using the well-stirred liver model.

[6] = type: in vitro ADME, Mice
Description: as §2

Caco-2 monolayers = assay: in vitro; conditions: for CACO permeability PEAB: apical to basolateral; for CACO permeability PEBA: basolateral to apical; for Caco-2 Int. Perm: mean value of P(A−B) and P(B−A)
Text: (§3) Supplementary Table 1. Structure-Activity Relationships part 1 (SPR, Caco-2) […]
(§4) SPR. Mean values ± standard deviation. Footnotes indicate the number of measurements performed for the respective compound: a) n = […]
(§5) [5] Permeability across Caco-2 monolayers in P(A−B): apical to basolateral and P(B−A): basolateral to apical direction (values reported in 10-
(§6) 6 cm s-1); efflux ratio = P(B−A)/P(A−B); Int. perm: mean value of P(A−B) and P(B−A). […] Influence of Trp-Nα methylation on P(A-B) and efflux
(§7) ratio. Bold: positive influence.

in vitro = conditions: human; for efflux ratio: Caco-2; for Papp A→B: apical to basolateral; for Papp B→A: basolateral to apical
Text: as §3, §4, §5, §6, §7

[7] = type: in vitro ADME, Rat; conditions: for Microsomal Stability Rat: clearance in microsomes
Description: as §2

[8] = target: ClpC1 NTD protein (M. tuberculosis) (Mycobacterium tuberculosis, UniProt P9WPC9); assay: biochemical; type: binding; conditions: for koff: read-out: koff ClpC1-NTD
[9] = target: ClpC1-NTD substrate, M. tuberculosis ClpC1P1P2 (Mycobacterium tuberculosis, UniProt P9WPC9); assay: biochemical; type: biochemical; conditions: Mtb
[10] = target: His6-tagged ClpC1-NTD substrate, M. smegmatis ClpC1P1P2 (UniProt A0R574+P9WPC9); assay: biochemical; type: biochemical; conditions: Msm
[11] = Experiment 2, three replicate columns
[12] = SPR (Supplementary Table 1), read-out: KD ClpC1-NTD Mean ± SD
[13] = SPR, single independent measurements
[14] = SPR, single independent measurements, read-out: KD ClpC1-NTD
[15] = mean of the measurements, read-out: 1-Dmax, Mean
[16] = mean of the measurements, read-out: DC50, Mean

Row | Structure (SMILES) | Hepatocyte Stability Human QH [2] | Hepatocyte Human [2] | Hepatocyte Stability Mouse QH [3] | Hepatocyte Mice [3] | Hepatocyte Stability Rat QH [4] | Hepatocyte Rat [4] | Microsomal Stability Human QH [5] | Microsomal Stability Human [5] | CACO permeability PEAB (Caco-2 monolayers) | CACO permeability PEBA (Caco-2 monolayers) | Caco-2 Int. Perm (Caco-2 monolayers) | efflux ratio (in vitro) | Papp A→B (in vitro; Caco-2, CACO permeability PEAB) | Papp B→A (in vitro; Caco-2, CACO permeability PEBA) | Microsomal Stability Rat QH [7] | Microsomal Stability Rat [7] | Kd [8, 12] | koff ClpC1-NTD [8, 13] | Kd [8, 14] | koff [8, 13] | further results
1 | CC[C@H]1OC(=O)[C@H](C)[C@@H](O[C@H]2C[C@@](C)(OC)[C@@H](O)[C@H](C)O2)[C@H](C)[C@@H](O[C@@H]2O[C@H](C)C[C@H](N(C)C)[C@H]2O)[C@](C)(OC)C[C@@H](C)C(=O)[C@H](C)[C@@H](O)[C@]1(C)O [Clarithromycin, reference compound] | – | – | – | – | – | – | – | – | – | – | – | – | – | – | – | – | – | – | – | – | MIC (µg/ml) Mycobacterium intracellulare [1, 11]: 0.13 µg/mL (≈ 0.174 µM); MIC ([1]; Experiment 2, three replicate columns, read-out: MIC (µM) Mycobacterium intracellulare): 0.17 µM; MIC ([1]; Mycobacterium intracellulare, Experiment 2, three replicate columns, read-out: MIC (µM) Mycobacterium intracellulare): 0.17 µM; MIC ([1]; Mycobacterium intracellulare, Experiment 2, three replicate columns, read-out: MIC (µg/ml) Mycobacterium intracellulare): 0.13 µg/mL; MIC ([1]; Mycobacterium intracellulare, mean ± SD, read-out: MIC Mycobacterium intracellulare): 0.2 µM; MIC (µg/ml) Mycobacterium abscessus (Mycobacterium abscessus; [11]): 0.50 µg/mL (≈ 0.668 µM); MIC (Mycobacterium abscessus; Experiment 2, three replicate columns, read-out: MIC (µM) Mycobacterium abscessus): 0.67 µM; MIC (Mycobacterium abscessus; Mycobacteroides abscessus, Experiment 2, three replicate columns, read-out: MIC (µM) Mycobacterium abscessus): 0.67 µM; MIC (Mycobacterium abscessus; Mycobacteroides abscessus, Experiment 2, three replicate columns, read-out: MIC (µg/ml) Mycobacterium abscessus): 0.5 µg/mL; MIC (Mycobacterium abscessus; Mycobacteroides abscessus, mean ± SD, read-out: MIC Mycobacterium abscessus): 0.7 µM; MIC (µg/ml) Mycobacterium fortuitum (Mycobacterium fortuitum; [11]): 0.50 µg/mL (≈ 0.668 µM); MIC (Mycobacterium fortuitum; Experiment 2, three replicate columns, read-out: MIC (µM) Mycobacterium fortuitum): 0.67 µM; MIC (Mycobacterium fortuitum; Mycolicibacterium fortuitum, Experiment 2, three replicate columns, read-out: MIC (µM) Mycobacterium fortuitum): 0.67 µM; MIC (Mycobacterium fortuitum; Mycolicibacterium fortuitum, Experiment 2, three replicate columns, read-out: MIC (µg/ml) Mycobacterium fortuitum): 0.5 µg/mL; MIC (Mycobacterium fortuitum; Mycolicibacterium fortuitum, mean ± SD, read-out: MIC Mycobacterium fortuitum): 0.7 µM; MIC (µg/ml) Mycobacterium avium (Mycobacterium avium; [11]): 0.25 µg/mL (≈ 0.334 µM); MIC (Mycobacterium avium; Experiment 2, three replicate columns, read-out: MIC (µM) Mycobacterium avium): 0.33 µM; MIC (Mycobacterium avium; Mycobacterium avium, Experiment 2, three replicate columns, read-out: MIC (µM) Mycobacterium avium): 0.33 µM; MIC (Mycobacterium avium; Mycobacterium avium, Experiment 2, three replicate columns, read-out: MIC (µg/ml) Mycobacterium avium): 0.25 µg/mL; MIC (Mycobacterium avium; Mycobacterium avium, mean ± SD, read-out: MIC Mycobacterium avium): 0.3 µM
2 | C=CCn1cc(C[C@@H]2NC(=O)[C@H](C(C)C)NC(=O)[C@H](CC(C)C)N(C)C(=O)[C@H](C(C)C)NC(=O)[C@H]([C@H](OC)c3ccccc3)NC(=O)[C@H](C)NC(=O)[C@H](C[C@@H](C)CO)N(C)C2=O)c2ccccc21 [Compound 13] (cyclo(A[Phe(βR-OMe)]V[NMeL]V[X7][NMeLeu(5-OH,4R)])) | 18.968% | 19 %Qh | 58.852% | 59 %Qh | 65.282% | 65 %Qh | >88.400% | > 88 %Qh | 2.4 ×10⁻⁶ cm/s | 18.999999999999998 ×10⁻⁶ cm/s | 10.7 10-6 cm s-1 | 7.9 | 4.5 ×10⁻⁶ cm/s | 33 ×10⁻⁶ cm/s | >87.900% | > 88 %Qh | 3.6 ± 0.2 nM | 0.1 s⁻¹ | 3.66 nM and 3.44 nM | 0.07 s⁻¹ | Microsomal Stability Mouse QH ([6]; Mouse): >88.400%; Microsomal Stability Mice ([6]; clearance in microsomes): > 88 %Qh
3 | CO[C@H](c1ccccc1)[C@@H]1NC(=O)[C@H](C)NC(=O)[C@H](C[C@@H](C)CO)N(C)C(=O)[C@H](Cc2cn(Cc3cn(CCCCCn4cc(Cn5cc(C[C@H]6C(=O)N(C)[C@@H](C[C@@H](C)CO)C(=O)N[C@@H](C)C(=O)N[C@@H]([C@H](OC)c7ccccc7)C(=O)N[C@@H](C(C)C)C(=O)N(C)[C@@H](CC(C)C)C(=O)N[C@@H](C(C)C)C(=O)N6C)c6ccccc65)nn4)nn3)c3ccccc23)N(C)C(=O)[C@H](C(C)C)NC(=O)[C@H](CC(C)C)N(C)C(=O)[C@H](C(C)C)NC1=O [SI-57] | – | 12 %Qh | – | 15 %Qh | 8.056% | 8 %Qh | – | – | – | – | 1.5 10-6 cm s-1 | – | – | – | – | – | 1.6 ± 0.8 nM | 0.001 s⁻¹ | 2.13 nM and 1 nM | 0.002 s⁻¹ | 1-Dmax, single measurements ([9]; Measurement 1-4): 68.4% and 44.2% and 52.6%; DC50 ([9]; Measurement 1-4, read-out: DC50, single measurements): 20900 nM and 18700 nM and 31500 nM; 1-Dmax (percent substrate remaining at maximal degradation) [9, 15]: 55%; DC50 [9, 16]: 23700 nM; 1-Dmax, single measurements ([10]; Measurement 1-6): 73.5% and 61.5% and 74.0%; 1-Dmax (percent substrate remaining at maximal degradation) ([10]; Measurement 1-6, read-out: 1-Dmax, single measurements): 60.5%; 1-Dmax (percent substrate remaining at maximal degradation) [10, 15]: 67%; DC50 [10, 16]: 23000 nM; Papp A→B (in vitro; Caco-2, Caco-2 permeability P (A-B)): < 2.2 ×10⁻⁶ cm/s; Papp B→A (in vitro; Caco-2, Caco-2 permeability P (B-A)): < 0.7 ×10⁻⁶ cm/s
4 | C=CCn1cc(C[C@H]2C(=O)N(C)[C@@H](C[C@@H](C)CO)C(=O)N[C@@H](C)C(=O)N[C@@H]([C@H](OC)c3ccccc3)C(=O)N[C@@H](C(C)C)C(=O)N(C)[C@@H](CC(C)C)C(=O)N[C@@H](C(C)C)C(=O)N2C)c2ccccc21 [SI-60] (cyclo(A[Phe(βR-OMe)]V[NMeL]V[X5][NMeLeu(5-OH,4R)])) | 50.176% | 50 %Qh | 61.367% | 61 %Qh | 57.215% | 57 %Qh | >88.400% | > 88 %Qh | 35 ×10⁻⁶ cm/s | 88 ×10⁻⁶ cm/s | 61.5 10-6 cm s-1 | 2.5 | 46 ×10⁻⁶ cm/s | 49 ×10⁻⁶ cm/s | >87.900% | > 88 %Qh | 8 ± 3 nM | 0.04 s⁻¹ | 9.87 nM and 5.93 nM | 0.03 s⁻¹ | Permeability Correlation P (A-B) (Caco-2 monolayers; influence of Trp-Nα methylation on P(A-B), matched pair, listed under the methylated partner): 14.6; Permeability Correlation Ratio (Caco-2 monolayers; influence of Trp-Nα methylation on efflux ratio, matched pair, listed under the methylated partner): 3.2
